Reference: patent US9919998B2, “Antibacterial agents: Nα-aroyl-N-aryl-phenylalaninamides” (priority 2014, dated 2018)
≈ marks a conversion by molar mass, not a printed value.

How the values were obtained:
Type in all cases: cell-based
[1] = system: Mycobacterium tuberculosis H37Rv; assay: Microplate Alamar Blue assay (MABA) MIC, M. tuberculosis; conditions: read-out: MIC Mycobacterium tuberculosis H37Rv
Description: (§1) Minimal inhibitory concentrations (MICs) in Mycobacterium tuberculosis H37Rv and Mycobacterium avium ATCC 25291 were quantified using microplate Alamar Blue assays as described (MABA; [Collins, L. & Franzblau, S. (1997) Microplate Alamar Blue assay versus BACTEC 460 system for high-throughput screening of compounds against Mycobacterium tuberculosis and Mycobacterium avium. Antimicrob. Agents Chemother. 41, 1004-1009]).

[2] = system: Mycobacterium avium ATCC 25291; assay: Microplate Alamar Blue assay (MABA) MIC, M. avium; conditions: ATCC25291, M. avium ATCC 25291
Description: as §1

[3] = system: Vero E6 ATCC CRL1586 cells; assay: Mammalian-cell cytotoxicity, minimal cytotoxic concentration (CellTiter96)
Experimental: Minimal cytotoxic concentrations (MCCs) against mammalian cells in culture were determined using Vero E6 ATCC CRL1586 cells and the CellTiter96 assay kit (Promega, Inc.). […]

[4] = system: Mycobacterium smegmatis ATCC 19420; assay: Broth microdilution MIC, M. smegmatis; conditions: Mycolicibacterium smegmatis, ATCC19420, M. smegmatis ATCC 19420; read-out: MIC Mycobacterium smegmatis ATCC 19420
Description: MICs in Mycobacterium smegmatis ATCC 19420 and Mycobacterium smegmatis ATCC 19420 derivatives were quantified using broth microdilution assays as described [Clinical and Laboratory Standards Institute (CLSI/NCCLS) (2009) Methods for Dilution Antimicrobial Susceptibility Tests for Bacteria That Grow Aerobically; Approved Standard, Eighth Edition. CLIS Document M07-A8 (CLIS, Wayne Pa.)].

Compound	MIC [1]	MIC [2]	MCC mammalian cells Vero E6 ATCC CRL1586 [3]	MIC [4]
Cc1ccc(Cl)cc1NC(=O)C(Cc1ccc(O)cc1)NC(=O)c1cccs1 (stereo not shown) [IX-94, N-(1-((5-chloro-2-methylphenyl)amino)-3-(4-hydroxyphenyl)-1-oxopropan-2-yl)thiophene-2-carboxamide]	3.12 µg/mL (≈ 7.53 µM)	3.12 µg/mL (≈ 7.53 µM)	58 µg/mL	0.78 µg/mL (≈ 1.88 µM)
O=C(NC(Cc1ccccc1)C(=O)Nc1cccc2cc[nH]c12)c1ccccc1Cl (stereo not shown) [IX-95, N-(1-((1H-indol-7-yl)amino)-1-oxo-3-phenylpropan-2-yl)-2-chlorobenzamide]	12.5 µg/mL (≈ 29.9 µM)	25 µg/mL (≈ 59.8 µM)	20 µg/mL	0.39 µg/mL (≈ 0.933 µM)
O=C(NC(Cc1ccccc1)C(=O)Nc1cccc2cc[nH]c12)c1ccccc1F (stereo not shown) [IX-96, N-(1-((1H-indol-7-yl)amino)-1-oxo-3-phenylpropan-2-yl)-2-fluorobenzamide]	12.5 µg/mL (≈ 31.1 µM)	25 µg/mL (≈ 62.3 µM)	44 µg/mL	0.78 µg/mL (≈ 1.94 µM)
Cc1ccccc1C(=O)NC(Cc1ccccc1)C(=O)Nc1cccc2cc[nH]c12 (stereo not shown) [IX-97, N-(1-((1H-indol-7-yl)amino)-1-oxo-3-phenylpropan-2-yl)-2-methylbenzamide]	6.25 µg/mL (≈ 15.7 µM)	12.5 µg/mL (≈ 31.4 µM)	15 µg/mL	0.39 µg/mL (≈ 0.981 µM)
O=C(NC(Cc1ccccc1)C(=O)Nc1cccc2c1OCO2)c1cccs1 (stereo not shown) [IX-98, N-(1-(benzo[d][1,3]dioxol-4-ylamino)-1-oxo-3-phenylpropan-2-yl)thiophene-2-carboxamide]	6.25 µg/mL (≈ 15.8 µM)	3.12 µg/mL (≈ 7.92 µM)	13 µg/mL	0.195 µg/mL (≈ 0.494 µM)
O=C(NC(Cc1ccccc1)C(=O)Nc1cccc2c1OCO2)c1ccccc1F (stereo not shown) [IX-99, N-(1-(benzo[d][1,3]dioxol-4-ylamino)-1-oxo-3-phenylpropan-2-yl)-2-fluorobenzamide]	3.12 µg/mL (≈ 7.69 µM)	6.25 µg/mL (≈ 15.4 µM)	>100 µg/mL	0.195 µg/mL (≈ 0.48 µM)
O=C(NC(Cc1ccccc1)C(=O)Nc1ccccc1OC(F)F)c1cccs1 (stereo not shown) [IX-100, N-(1-((2-(difluoromethoxy)phenyl)amino)-1-oxo-3-phenylpropan-2-yl)thiophene-2-carboxamide]	6.25 µg/mL (≈ 15 µM)	6.25 µg/mL (≈ 15 µM)	42 µg/mL	0.39 µg/mL (≈ 0.936 µM)
O=C(NC(Cc1ccccc1)C(=O)Nc1ccccc1OC(F)F)c1ccccc1F (stereo not shown) [IX-101, N-(1-((2-(difluoromethoxy)phenyl)amino)-1-oxo-3-phenylpropan-2-yl)-2-fluorobenzamide]	6.25 µg/mL (≈ 14.6 µM)	6.25 µg/mL (≈ 14.6 µM)	>100 µg/mL	0.39 µg/mL (≈ 0.91 µM)
Cc1ccc(Br)cc1NC(=O)C(Cc1ccc(O)cc1)NC(=O)c1ccccc1 (stereo not shown) [IX-103, N-(1-((5-bromo-2-methylphenyl)amino)-3-(4-hydroxyphenyl)-1-oxopropan-2-yl)benzamide]	12.5 µg/mL (≈ 27.6 µM)	12.5 µg/mL (≈ 27.6 µM)	62 µg/mL	0.78 µg/mL (≈ 1.72 µM)
O=C(NC(Cc1ccccc1)C(=O)Nc1cccc2[nH]ccc12)c1cccs1 (stereo not shown) [IX-104, N-(1-((1H-indol-4-yl)amino)-1-oxo-3-phenylpropan-2-yl)thiophene-2-carboxamide]	25 µg/mL (≈ 64.2 µM)	50 µg/mL (≈ 128 µM)	33 µg/mL	0.39 µg/mL (≈ 1 µM)
O=C(NC(Cc1ccccc1)C(=O)Nc1ccccc1N1CCCC1)c1cccs1 (stereo not shown) [IX-105, N-(1-oxo-3-phenyl-1-((2-(pyrrolidin-1-yl)phenyl)amino)propan-2-yl)thiophene-2-carboxamide]	6.25 µg/mL (≈ 14.9 µM)	25 µg/mL (≈ 59.6 µM)	>100 µg/mL	0.78 µg/mL (≈ 1.86 µM)
COc1cccc(NC(=O)C(Cc2ccccc2)NC(=O)c2cccs2)c1C (stereo not shown) [IX-107, N-(1-((3-methoxy-2-methylphenyl)amino)-1-oxo-3-phenylpropan-2-yl)thiophene-2-carboxamide]	> 50 µg/mL	50 µg/mL (≈ 127 µM)	>100 µg/mL	0.78 µg/mL (≈ 1.98 µM)
COc1cccc(NC(=O)C(Cc2ccccc2)NC(=O)c2ccccc2F)c1C (stereo not shown) [IX-108, 2-fluoro-N-(1-((3-methoxy-2-methylphenyl)amino)-1-oxo-3-phenylpropan-2-yl)benzamide]	12.5 µg/mL (≈ 30.8 µM)	25 µg/mL (≈ 61.5 µM)	80 µg/mL	0.78 µg/mL (≈ 1.92 µM)
Cc1ccccc1C(=O)NC(Cc1ccccc1)C(=O)Nc1cc(F)ccc1OCF (stereo not shown) [IX-111, N-(1-((5-fluoro-2-(fluoromethoxy)phenyl)amino)-1-oxo-3-phenyl-propan-2-yl)-2-methylbenzamide]	0.39 µg/mL (≈ 0.919 µM)	0.78 µg/mL (≈ 1.84 µM)	100 µg/mL	0.39 µg/mL (≈ 0.919 µM)
O=C(NC(Cc1ccccc1)C(=O)Nc1ccccc1OC(F)F)c1ccccc1Cl (stereo not shown) [IX-119, 2-chloro-N-(1-((2-(difluoromethoxy)phenyl)amino)-1-oxo-3-phenylpropan-2-yl)benzamide]	3.12 µg/mL (≈ 7.02 µM)	12.5 µg/mL (≈ 28.1 µM)	5.6 µg/mL	0.39 µg/mL (≈ 0.877 µM)
Cc1ccccc1C(=O)NC(Cc1ccccc1)C(=O)Nc1ccccc1OC(F)F (stereo not shown) [IX-120, N-(1-((2-(difluoromethoxy)phenyl)amino)-1-oxo-3-phenylpropan-2-yl)-2-methylbenzamide]	3.12 µg/mL (≈ 7.36 µM)	3.12 µg/mL (≈ 7.36 µM)	>100 µg/mL	0.19 µg/mL (≈ 0.448 µM)
O=C(NC(Cc1ccccc1)C(=O)Nc1cccc2c1OC(F)(F)O2)c1ccccc1F (stereo not shown) [IX-122, N-(1-((2,2-difluorobenzo[d][1,3]dioxol-4-yl)amino)-1-oxo-3-phenyl-propan-2-yl)-2-fluorobenzamide]	> 50 µg/mL	> 50 µg/mL	94 µg/mL	1.56 µg/mL (≈ 3.53 µM)
O=C(NC(Cc1ccccc1)C(=O)Nc1cccc2c1OC(F)(F)O2)c1cccs1 (stereo not shown) [IX-124, N-(1-((2,2-difluorobenzo[d][1,3]dioxol-4-yl)amino)-1-oxo-3-phenyl-propan-2-yl)thiophene-2-carboxamide]	> 50 µg/mL	> 50 µg/mL	38 µg/mL	0.78 µg/mL (≈ 1.81 µM)
O=C(NC(Cc1ccccc1)C(=O)Nc1cccc2[nH]ncc12)c1ccccc1F (stereo not shown) [IX-128, N-(1-((1H-indazol-4-yl)amino)-1-oxo-3-phenylpropan-2-yl)-2-fluorobenzamide]	12.5 µg/mL (≈ 31.1 µM)	25 µg/mL (≈ 62.1 µM)	58 µg/mL	0.39 µg/mL (≈ 0.969 µM)
O=C(NC(Cc1ccccc1)C(=O)Nc1ccccc1N1CCSCC1)c1ccccc1 (stereo not shown) [IX-149, N-(1-oxo-3-phenyl-1-((2-thiomorpholinophenyl)amino)propan-2-yl)-benzamide]	3.12 µg/mL (≈ 7.01 µM)	> 50 µg/mL	>100 µg/mL	0.095 µg/mL (≈ 0.213 µM)
O=C(NC(Cc1ccccc1)C(=O)Nc1ccccc1N1CCNCC1)c1ccccc1 (stereo not shown) [IX-150, N-(1-oxo-3-phenyl-1-((2-(piperazin-1-yl)phenyl)amino)propan-2-yl)-benzamide]	6.25 µg/mL (≈ 14.6 µM)	3.12 µg/mL (≈ 7.29 µM)	38 µg/mL	0.39 µg/mL (≈ 0.91 µM)
CN1CCN(c2ccccc2NC(=O)C(Cc2ccccc2)NC(=O)c2ccccc2)CC1 (stereo not shown) [IX-151, N-(1-((2-(4-methylpiperazin-1-yl)phenyl)amino)-1-oxo-3-phenyl-propan-2-yl)benzamide]	12.5 µg/mL (≈ 28.2 µM)	12.5 µg/mL (≈ 28.2 µM)	35 µg/mL	0.78 µg/mL (≈ 1.76 µM)
